Measurements reported in patent US5977133A, “Pyridone antibiotic with improved safety profile” (priority 1998, dated 1999).
In brackets after ≈: the same amount, converted by molar mass.

What was measured:
Assay type in all cases: cell-based
S. aureus (CiproS) = experiment: In vitro MIC, agar dilution; settings: Staphylococcus aureus
S. aureus (CiproR) = experiment: In vitro MIC, agar dilution; settings: Staphylococcus aureus
S. epidermidis (CiproS) = experiment: In vitro MIC, agar dilution; settings: Staphylococcus epidermidis
S. epidermidis (CiproR) = experiment: In vitro MIC, agar dilution; settings: Staphylococcus epidermidis
S. pneumoniae (PenS) = experiment: In vitro MIC, agar dilution; settings: Streptococcus pneumoniae
S. pneumoniae (PenR) = experiment: In vitro MIC, agar dilution; settings: Streptococcus pneumoniae
S. pneumoniae (CiproR) = experiment: In vitro MIC, agar dilution; settings: Streptococcus pneumoniae, read-out: MIC Range
S. pyogenes = experiment: In vitro MIC, agar dilution; settings: Streptococcus pyogenes
E. faecium (CiproS) = experiment: In vitro MIC, agar dilution; settings: Enterococcus faecium
E. faecium (CiproR) = experiment: In vitro MIC, agar dilution; settings: Enterococcus faecium, read-out: MIC Range
E. faecalis (VanS) = experiment: In vitro MIC, agar dilution; settings: Enterococcus faecalis
Enterococcus spp. (VanR) = experiment: In vitro MIC, agar dilution; settings: Enterococcus spp. (VanR), 21 isolates
E. coli = experiment: In vitro MIC, agar dilution; settings: Escherichia coli, 25 isolates
Method: (§1) Each plate was inoculated with 1:100 (or 1:10 for slow-growing strains, primarily Micrococcus and Streptococcus) dilutions of up to 32 different microorganisms, using a Steers replicator block calibrated to deliver approximately 10^4 colony forming units (CFU's). The inoculated plates were incubated at from about 35° C. to about 37 ° C. for approximately 20-24 hours. In addition, a control plate using BHI agar containing no test compound was prepared and incubated at the beginning and at the end of each test. The quinolone antibacterial ciprofloxacin was used as a control ("Cntl").
(§2) The numbers below the microorganism species indicate the nunbers of isolates tested. […] The MIC is defined as the lowest concentration of test compound yielding no growth (a slight haze or sparsely isolated colonies at the inoculum spot) as compared to the growth control containing no test compound.

Salmonella spp. = experiment: In vitro MIC, agar dilution; settings: 23 isolates
Method: as §1, §2

Shigella spp. = experiment: microbe, parasite or virus in culture; settings: read-out: MIC Range
Klebsiella spp. = experiment: In vitro MIC, agar dilution
C. freundii = experiment: In vitro MIC, agar dilution; settings: Citrobacter freundii
P. mirabilis = experiment: In vitro MIC, agar dilution; settings: Proteus mirabilis
Providencia spp. = experiment: In vitro MIC, agar dilution; settings: Providencia spp., 28 isolates
Enterobacter spp. = experiment: In vitro MIC, agar dilution
P. aeruginosa (CiproS) = experiment: In vitro MIC, agar dilution; settings: Pseudomonas aeruginosa, P. aeruginosa (CiproS), 24 isolates
P. aeruginosa (CiproR) = experiment: In vitro MIC, agar dilution; settings: Pseudomonas aeruginosa
B. fragilis = experiment: In vitro MIC, agar dilution; settings: Bacteroides fragilis
C. difficile = experiment: In vitro MIC, agar dilution; settings: Clostridioides difficile; C. difficile, 10 isolates; read-out: MIC90
H. influenzae = experiment: In vitro MIC, agar dilution; settings: Haemophilus influenzae
M. pneumoniae = experiment: In vitro MIC, agar dilution; settings: Mycoplasmoides pneumoniae, read-out: MIC Range
N. gonorrhoeae = experiment: In vitro MIC, agar dilution; settings: Neisseria gonorrhoeae
H. pylori = experiment: In vitro MIC, agar dilution; settings: Helicobacter pylori
M. avium = experiment: In vitro MIC, agar dilution; settings: Mycobacterium avium, M. avium, 20 isolates

N[C@@H]1[C@H]2CN(c3nc4c(cc3F)c(=O)c(C(=O)O)cn4-c3ccc(F)cc3F)C[C@@H]12 [Trovafloxacin, trovafloxacin]
MIC50 (S. aureus (CiproS)): 0.03 mg/L (≈ 0.0721 µM)
MIC90 (S. aureus (CiproS)): 0.03 mg/L (≈ 0.0721 µM)
MIC (S. aureus (CiproS); S. aureus (CiproS), 21 isolates, read-out: MIC Range): 0.008 to 0.03 mg/L (≈ 0.0192 to 0.0721 µM)
MIC (S. aureus (CiproR); read-out: MIC Range): 0.25 to 4 mg/L (≈ 0.6 to 9.61 µM)
MIC50 (S. aureus (CiproR); S. aureus (CiproR), 25 isolates, read-out: MIC50): 2 mg/L (≈ 4.8 µM)
MIC90 (S. aureus (CiproR); S. aureus (CiproR), 25 isolates, read-out: MIC90): 2 mg/L (≈ 4.8 µM)
MIC90 (S. epidermidis (CiproS)): 0.06 mg/L (≈ 0.144 µM)
MIC50 (S. epidermidis (CiproS); S. epidermidis (CiproS), 23 isolates, read-out: MIC50): 0.06 mg/L (≈ 0.144 µM)
MIC (S. epidermidis (CiproS); S. epidermidis (CiproS), 23 isolates, read-out: MIC Range): 0.015 to 0.06 mg/L (≈ 0.036 to 0.144 µM)
MIC (S. epidermidis (CiproR); read-out: MIC Range): 1 to 16 mg/L (≈ 2.4 to 38.4 µM)
MIC50 (S. epidermidis (CiproR); S. epidermidis (CiproR), 11 isolates, read-out: MIC50): 4 mg/L (≈ 9.61 µM)
MIC90 (S. epidermidis (CiproR); S. epidermidis (CiproR), 11 isolates, read-out: MIC90): 16 mg/L (≈ 38.4 µM)
MIC90 (S. pneumoniae (PenS)): 0.5 mg/L (≈ 1.2 µM)
MIC (S. pneumoniae (PenS); read-out: MIC Range): 0.12 to 0.5 mg/L (≈ 0.288 to 1.2 µM)
MIC50 (S. pneumoniae (PenS); S. pneumoniae (PenS), 20 isolates, read-out: MIC50): 0.5 mg/L (≈ 1.2 µM)
MIC90 (S. pneumoniae (PenR)): 0.25 mg/L (≈ 0.6 µM)
MIC (S. pneumoniae (PenR); read-out: MIC Range): 0.06 to 0.25 mg/L (≈ 0.144 to 0.6 µM)
MIC50 (S. pneumoniae (PenR); S. pneumoniae (PenR), 25 isolates, read-out: MIC50): 0.25 mg/L (≈ 0.6 µM)
MIC (S. pneumoniae (CiproR)): 0.5 to 1 mg/L (≈ 1.2 to 2.4 µM)
MIC90 (S. pyogenes): 0.25 mg/L (≈ 0.6 µM)
MIC50 (S. pyogenes; S. pyogenes, 21 isolates, read-out: MIC50): 0.12 mg/L (≈ 0.288 µM)
MIC (S. pyogenes; S. pyogenes, 21 isolates, read-out: MIC Range): 0.06 to 1 mg/L (≈ 0.144 to 2.4 µM)
MIC (E. faecium (CiproS); read-out: MIC Range): 0.25 to 1 mg/L (≈ 0.6 to 2.4 µM)
MIC50 (E. faecium (CiproS); E. faecium (CiproS), 16 isolates, read-out: MIC50): 0.5 mg/L (≈ 1.2 µM)
MIC90 (E. faecium (CiproS); E. faecium (CiproS), 16 isolates, read-out: MIC90): 1 mg/L (≈ 2.4 µM)
MIC (E. faecium (CiproR)): 2 to 32 mg/L (≈ 4.8 to 76.9 µM)
MIC (E. faecalis (VanS); read-out: MIC Range): 0.25 to 1 mg/L (≈ 0.6 to 2.4 µM)
MIC50 (E. faecalis (VanS); E. faecalis (VanS), 17 isolates, read-out: MIC50): 0.5 mg/L (≈ 1.2 µM)
MIC90 (E. faecalis (VanS); E. faecalis (VanS), 17 isolates, read-out: MIC90): 1 mg/L (≈ 2.4 µM)
MIC50 (Enterococcus spp. (VanR); read-out: MIC50): 1 mg/L (≈ 2.4 µM)
MIC90 (Enterococcus spp. (VanR); read-out: MIC90): 1 mg/L (≈ 2.4 µM)
MIC (Enterococcus spp. (VanR); read-out: MIC Range): 0.06 to 32 mg/L (≈ 0.144 to 76.9 µM)
MIC (E. coli): 0.015 to 0.03 mg/L (≈ 0.036 to 0.0721 µM)
MIC50 (E. coli; read-out: MIC50): 0.03 mg/L (≈ 0.0721 µM)
MIC90 (E. coli; read-out: MIC90): 0.03 mg/L (≈ 0.0721 µM)
MIC (Salmonella spp.): 0.03 to 1 mg/L (≈ 0.0721 to 2.4 µM)
MIC50 (Salmonella spp.; read-out: MIC50): 0.06 mg/L (≈ 0.144 µM)
MIC90 (Salmonella spp.; read-out: MIC90): 0.12 mg/L (≈ 0.288 µM)
MIC (Shigella spp.): 0.015 to 0.06 mg/L (≈ 0.036 to 0.144 µM)
MIC90 (Klebsiella spp.; Klebsiella): 0.25 mg/L (≈ 0.6 µM)
MIC50 (Klebsiella spp.; Klebsiella spp., 29 isolates, read-out: MIC50): 0.12 mg/L (≈ 0.288 µM)
MIC (Klebsiella spp.; Klebsiella spp., 29 isolates, read-out: MIC Range): 0.015 to 0.5 mg/L (≈ 0.036 to 1.2 µM)
MIC90 (C. freundii): 0.5 mg/L (≈ 1.2 µM)
MIC50 (C. freundii; C. freundii, 20 isolates, read-out: MIC50): 0.06 mg/L (≈ 0.144 µM)
MIC (C. freundii; C. freundii, 20 isolates, read-out: MIC Range): 0.003 to 1 mg/L (≈ 0.00721 to 2.4 µM)
MIC90 (P. mirabilis): 0.5 mg/L (≈ 1.2 µM)
MIC (P. mirabilis; read-out: MIC Range): 0.25 to 0.5 mg/L (≈ 0.6 to 1.2 µM)
MIC50 (P. mirabilis; P. mirabilis, 20 isolates, read-out: MIC50): 0.25 mg/L (≈ 0.6 µM)
MIC50 (Providencia spp.; read-out: MIC50): 0.25 mg/L (≈ 0.6 µM)
MIC90 (Providencia spp.; read-out: MIC90): 2 mg/L (≈ 4.8 µM)
MIC (Providencia spp.; read-out: MIC Range): 0.03 to 2 mg/L (≈ 0.0721 to 4.8 µM)
MIC90 (Enterobacter spp.; Enterobacter): 0.12 mg/L (≈ 0.288 µM)
MIC50 (Enterobacter spp.; Enterobacter spp., 35 isolates, read-out: MIC50): 0.12 mg/L (≈ 0.288 µM)
MIC (Enterobacter spp.; Enterobacter spp., 35 isolates, read-out: MIC Range): 0.015 to 0.5 mg/L (≈ 0.036 to 1.2 µM)
MIC50 (P. aeruginosa (CiproS); read-out: MIC50): 0.5 mg/L (≈ 1.2 µM)
MIC90 (P. aeruginosa (CiproS); read-out: MIC90): 2 mg/L (≈ 4.8 µM)
MIC (P. aeruginosa (CiproS); read-out: MIC Range): 0.12 to 4 mg/L (≈ 0.288 to 9.61 µM)
MIC90 (P. aeruginosa (CiproR)): > 128 mg/L
MIC50 (P. aeruginosa (CiproR); P. aeruginosa (CiproR), 20 isolates, read-out: MIC50): > 128 mg/L
MIC90 (B. fragilis): 0.5 mg/L (≈ 1.2 µM)
MIC (B. fragilis; read-out: MIC Range): 0.12 to 1 mg/L (≈ 0.288 to 2.4 µM)
MIC50 (B. fragilis; B. fragilis, 18 isolates, read-out: MIC50): 0.25 mg/L (≈ 0.6 µM)
MIC90 (C. difficile): 2 mg/L (≈ 4.8 µM)
MIC90 (H. influenzae): 0.03 mg/L (≈ 0.0721 µM)
MIC50 (H. influenzae; H. influenzae, 18 isolates, read-out: MIC50): 0.015 mg/L (≈ 0.036 µM)
MIC (H. influenzae; H. influenzae, 18 isolates, read-out: MIC Range): 0.008 to 0.06 mg/L (≈ 0.0192 to 0.144 µM)
MIC (M. pneumoniae): 0.12 to 0.25 mg/L (≈ 0.288 to 0.6 µM)
MIC90 (N. gonorrhoeae): 0.06 mg/L (≈ 0.144 µM)
MIC (N. gonorrhoeae; read-out: MIC Range): 0.015 to 0.12 mg/L (≈ 0.036 to 0.288 µM)
MIC50 (N. gonorrhoeae; N. gonorrhoeae, 12 isolates, read-out: MIC50): 0.015 mg/L (≈ 0.036 µM)
MIC90 (H. pylori): 0.5 mg/L (≈ 1.2 µM)
MIC50 (H. pylori; H. pylori, 17 isolates, read-out: MIC50): 0.12 mg/L (≈ 0.288 µM)
MIC (H. pylori; H. pylori, 17 isolates, read-out: MIC Range): 0.06 to 1 mg/L (≈ 0.144 to 2.4 µM)
MIC50 (M. avium; read-out: MIC50): 32 mg/L (≈ 76.9 µM)
MIC90 (M. avium; read-out: MIC90): 64 mg/L (≈ 154 µM)
MIC (M. avium; read-out: MIC Range): 8 to 128 mg/L (≈ 19.2 to 307 µM)
